ChEMBL document CHEMBL1201862, “PubChem BioAssay data set” (2004)
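Test compounds were applied to cells in 96-well plates for 48 hours at 5 doses. GI50 = concentration required for 50% inhibition of growth.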 Calls of active or inactive are those of the source. Rule as the data show it: active = GI50 up to about 1.1 µM and inactive = higher.

Legend:
Assay in all cases: growth of human tumour cells (NCI), 48 h
786-0 = tested on: 786-0
A498 = tested on: A498
A549 = tested on: A549
ACHN = tested on: ACHN
BT-549 = tested on: BT-549
CAKI-1 = tested on: CAKI-1
CCRF-CEM = tested on: CCRF-CEM
COLO 205 = tested on: COLO 205
DU-145 = tested on: DU-145
EKVX = tested on: EKVX
HCC 2998 = tested on: HCC 2998
HCT-116 = tested on: HCT-116
HCT-15 = tested on: HCT-15
HL-60 = tested on: HL-60
HOP-62 = tested on: HOP-62
HOP-92 = tested on: HOP-92
HT-29 = tested on: HT-29
IGROV-1 = tested on: IGROV-1
K562 = tested on: K562
KM12 = tested on: KM12
M14 = tested on: M14
MCF7 = tested on: MCF7
MDA-MB-231 = tested on: MDA-MB-231
MDA-MB-435 = tested on: MDA-MB-435
MDA-N = tested on: MDA-N
MOLT-4 = tested on: MOLT-4
Malme-3M = tested on: Malme-3M
NCI-H522 = tested on: NCI-H522
NCI/ADR-RES = tested on: NCI/ADR-RES
OVCAR-3 = tested on: OVCAR-3
OVCAR-5 = tested on: OVCAR-5
OVCAR-8 = tested on: OVCAR-8
PC-3 = tested on: PC-3
RPMI-8226 = tested on: RPMI-8226
SF-268 = tested on: SF-268
SF-295 = tested on: SF-295
SF-539 = tested on: SF-539
SK-MEL-28 = tested on: SK-MEL-28
SK-MEL-2 = tested on: SK-MEL-2
SK-MEL-5 = tested on: SK-MEL-5
SK-OV-3 = tested on: SK-OV-3
SN12C = tested on: SN12C
SNB-19 = tested on: SNB-19
SNB-75 = tested on: SNB-75
SR = tested on: SR
SW-620 = tested on: SW-620
T47D = tested on: T47D
U-251 = tested on: U-251
UACC-62 = tested on: UACC-62
UO-31 = tested on: UO-31
Hs-578T = tested on: Hs-578T
LOX IMVI = tested on: LOX IMVI
NCI-H23 = tested on: NCI-H23
NCI-H460 = tested on: NCI-H460
OVCAR-4 = tested on: OVCAR-4
TK-10 = tested on: TK-10
UACC-257 = tested on: UACC-257
NCI-H226 = tested on: NCI-H226
RXF 393 = tested on: RXF 393

CCOC(=O)/C(=C\c1cn(C(C)=O)c2ccccc12)P(C)(=O)OCC (stereo not given)
GI50 (786-0): 39.5 µM (inactive) | GI50 (A498): 28.8 µM (inactive) | GI50 (A549): 37.1 µM (inactive) | GI50 (ACHN): 26 µM (inactive) | GI50 (BT-549): 22.3 µM (inactive) | GI50 (CAKI-1): 46.2 µM (inactive) | GI50 (CCRF-CEM): 57.3 µM (inactive) | GI50 (COLO 205): 54.5 µM (inactive) | GI50 (DU-145): 25.9 µM (inactive) | GI50 (EKVX): 33.3 µM (inactive) | GI50 (HCC 2998): 27.9 µM (inactive) | GI50 (HCT-116): 26.2 µM (inactive) | GI50 (HCT-15): 28.8 µM | GI50 (HL-60): > 100 µM (inactive) | GI50 (HOP-62): 33.2 µM (inactive) | GI50 (HOP-92): 17.2 µM (inactive) | GI50 (HT-29): 39.9 µM (inactive) | GI50 (IGROV-1): 16.8 µM (inactive) | GI50 (K562): > 100 µM (inactive) | GI50 (KM12): 33.1 µM (inactive) | GI50 (M14): 16.7 µM (inactive) | GI50 (MCF7): 32.8 µM (inactive) | GI50 (MDA-MB-231): 27.4 µM (inactive) | GI50 (MDA-MB-435): 31.8 µM (inactive) | GI50 (MDA-N): 24.8 µM (inactive) | GI50 (MOLT-4): > 100 µM (inactive) | GI50 (Malme-3M): 17.3 µM (inactive) | GI50 (NCI-H522): 19.2 µM (inactive) | GI50 (NCI/ADR-RES): 20.4 µM (inactive) | GI50 (OVCAR-3): 28.5 µM (inactive) | GI50 (OVCAR-5): 68.7 µM (inactive) | GI50 (OVCAR-8): 33.4 µM (inactive) | GI50 (PC-3): 52.5 µM (inactive) | GI50 (RPMI-8226): > 100 µM (inactive) | GI50 (SF-268): 21.1 µM (inactive) | GI50 (SF-295): 41.8 µM (inactive) | GI50 (SF-539): 19.8 µM (inactive) | GI50 (SK-MEL-28): 64.7 µM (inactive) | GI50 (SK-MEL-2): 39.8 µM (inactive) | GI50 (SK-MEL-5): 47.5 µM (inactive) | GI50 (SK-OV-3): 27.1 µM (inactive) | GI50 (SN12C): 26.8 µM (inactive) | GI50 (SNB-19): 49.9 µM (inactive) | GI50 (SNB-75): 11 µM (inactive) | GI50 (SR): > 100 µM (inactive) | GI50 (SW-620): 39.2 µM (inactive) | GI50 (T47D): 37.2 µM (inactive) | GI50 (U-251): 40.1 µM (inactive) | GI50 (UACC-62): 60 µM (inactive) | GI50 (UO-31): 32.3 µM (inactive)

Cc1ccc(Nc2nc(NNC(=O)Cc3ccccc3)nc(NNC(=O)c3ccncc3)n2)cc1
GI50 (786-0): > 10 µM (inactive) | GI50 (A498): > 10 µM (inactive) | GI50 (A549): > 10 µM (inactive) | GI50 (BT-549): > 10 µM (inactive) | GI50 (CAKI-1): > 10 µM (inactive) | GI50 (CCRF-CEM): > 10 µM (inactive) | GI50 (COLO 205): > 10 µM (inactive) | GI50 (DU-145): > 10 µM (inactive) | GI50 (EKVX): > 10 µM (inactive) | GI50 (HCC 2998): > 10 µM (inactive) | GI50 (HCT-15): > 10 µM | GI50 (HL-60): > 10 µM (inactive) | GI50 (HOP-62): > 10 µM (inactive) | GI50 (HOP-92): > 10 µM (inactive) | GI50 (HT-29): > 10 µM (inactive) | GI50 (Hs-578T): > 10 µM (inactive) | GI50 (IGROV-1): > 10 µM (inactive) | GI50 (K562): > 10 µM (inactive) | GI50 (KM12): > 10 µM (inactive) | GI50 (LOX IMVI): > 10 µM (inactive) | GI50 (M14): > 10 µM (inactive) | GI50 (MCF7): > 10 µM (inactive) | GI50 (MDA-MB-231): > 10 µM (inactive) | GI50 (MDA-N): > 10 µM (inactive) | GI50 (MOLT-4): > 10 µM (inactive) | GI50 (Malme-3M): > 10 µM (inactive) | GI50 (NCI-H23): > 10 µM (inactive) | GI50 (NCI-H460): > 10 µM (inactive) | GI50 (NCI/ADR-RES): > 10 µM (inactive) | GI50 (OVCAR-4): > 10 µM (inactive) | GI50 (OVCAR-8): > 10 µM (inactive) | GI50 (RPMI-8226): > 10 µM (inactive) | GI50 (SF-268): > 10 µM (inactive) | GI50 (SF-539): > 10 µM (inactive) | GI50 (SK-MEL-28): > 10 µM (inactive) | GI50 (SK-MEL-5): > 10 µM (inactive) | GI50 (SK-OV-3): > 10 µM (inactive) | GI50 (SN12C): > 10 µM (inactive) | GI50 (SNB-75): > 10 µM (inactive) | GI50 (SR): > 10 µM (inactive) | GI50 (SW-620): > 10 µM (inactive) | GI50 (T47D): > 10 µM (inactive) | GI50 (TK-10): > 10 µM (inactive) | GI50 (U-251): > 10 µM (inactive) | GI50 (UACC-257): > 10 µM (inactive) | GI50 (UACC-62): 9.82 µM (inactive) | GI50 (UO-31): 8.49 µM (inactive)

O=C(O)CCN(CCC(=O)O)c1ccc(/C=C2\SC(=S)NC2=O)cc1
GI50 (786-0): > 100 µM (inactive) | GI50 (A498): > 100 µM (inactive) | GI50 (A549): > 100 µM (inactive) | GI50 (ACHN): > 100 µM (inactive) | GI50 (BT-549): > 100 µM (inactive) | GI50 (CAKI-1): > 100 µM (inactive) | GI50 (CCRF-CEM): > 100 µM (inactive) | GI50 (COLO 205): > 100 µM (inactive) | GI50 (DU-145): > 100 µM (inactive) | GI50 (EKVX): > 100 µM (inactive) | GI50 (HCC 2998): > 100 µM (inactive) | GI50 (HCT-116): > 100 µM (inactive) | GI50 (HCT-15): > 100 µM | GI50 (HL-60): > 100 µM (inactive) | GI50 (HOP-62): > 100 µM (inactive) | GI50 (HOP-92): > 100 µM (inactive) | GI50 (HT-29): > 100 µM (inactive) | GI50 (Hs-578T): > 100 µM (inactive) | GI50 (IGROV-1): > 100 µM (inactive) | GI50 (K562): > 100 µM (inactive) | GI50 (KM12): > 100 µM (inactive) | GI50 (LOX IMVI): > 100 µM (inactive) | GI50 (M14): > 100 µM (inactive) | GI50 (MCF7): > 100 µM (inactive) | GI50 (MDA-MB-231): > 100 µM (inactive) | GI50 (MDA-MB-435): > 100 µM (inactive) | GI50 (MOLT-4): > 100 µM (inactive) | GI50 (Malme-3M): 1.48 µM (inactive) | GI50 (NCI-H226): > 100 µM (inactive) | GI50 (NCI-H23): > 100 µM (inactive) | GI50 (NCI-H460): > 100 µM (inactive) | GI50 (NCI-H522): 91.6 µM (inactive) | GI50 (NCI/ADR-RES): > 100 µM (inactive) | GI50 (OVCAR-3): > 100 µM (inactive) | GI50 (OVCAR-4): > 100 µM (inactive) | GI50 (OVCAR-5): > 100 µM (inactive) | GI50 (OVCAR-8): > 100 µM (inactive) | GI50 (PC-3): > 100 µM (inactive) | GI50 (RPMI-8226): > 100 µM (inactive) | GI50 (RXF 393): > 100 µM (inactive) | GI50 (SF-268): > 100 µM (inactive) | GI50 (SF-295): > 100 µM (inactive) | GI50 (SF-539): > 100 µM (inactive) | GI50 (SK-MEL-28): > 100 µM (inactive) | GI50 (SK-MEL-2): > 100 µM (inactive) | GI50 (SK-MEL-5): > 100 µM (inactive) | GI50 (SK-OV-3): > 100 µM (inactive) | GI50 (SN12C): > 100 µM (inactive) | GI50 (SNB-19): > 100 µM (inactive) | GI50 (SNB-75): > 100 µM (inactive) | GI50 (SR): > 100 µM (inactive) | GI50 (SW-620): > 100 µM (inactive) | GI50 (T47D): > 100 µM (inactive) | GI50 (TK-10): > 100 µM (inactive) | GI50 (U-251): > 100 µM (inactive) | GI50 (UACC-257): > 100 µM (inactive) | GI50 (UACC-62): > 100 µM (inactive) | GI50 (UO-31): > 100 µM (inactive)
